Experimental data from ChEMBL document CHEMBL4417636, “Small molecule inhibitors of pendrin ion exchange and pharmaceutical compositions” (2017).
Active and inactive are the calls of the source. The calls are words filed in the database; no cut-off is given here.

How the values were obtained:
[1] = test system: Mus musculus; test: Potentiation of 20 mg/kg, ip furosemide-induced acute diuretic action in CD1 mouse assessed as effect on urine pH at 50 mg/kg, ip relative to control; assay type: functional, organism-based
[2] = molecular target: T1, Pendrin (Mus musculus) (UniProt Q9R155); test: Inhibition of mouse pendrin expressed in FRT cells co-expressing YFP-HIF assessed as reduction in pendrin-mediated exchange of Cl(-) with NO3(-) by pH-sensitive fluorescent probe BCECF-AM based fluorescence assay relative to control; assay type: cell-based
T1 sequence (whole entry): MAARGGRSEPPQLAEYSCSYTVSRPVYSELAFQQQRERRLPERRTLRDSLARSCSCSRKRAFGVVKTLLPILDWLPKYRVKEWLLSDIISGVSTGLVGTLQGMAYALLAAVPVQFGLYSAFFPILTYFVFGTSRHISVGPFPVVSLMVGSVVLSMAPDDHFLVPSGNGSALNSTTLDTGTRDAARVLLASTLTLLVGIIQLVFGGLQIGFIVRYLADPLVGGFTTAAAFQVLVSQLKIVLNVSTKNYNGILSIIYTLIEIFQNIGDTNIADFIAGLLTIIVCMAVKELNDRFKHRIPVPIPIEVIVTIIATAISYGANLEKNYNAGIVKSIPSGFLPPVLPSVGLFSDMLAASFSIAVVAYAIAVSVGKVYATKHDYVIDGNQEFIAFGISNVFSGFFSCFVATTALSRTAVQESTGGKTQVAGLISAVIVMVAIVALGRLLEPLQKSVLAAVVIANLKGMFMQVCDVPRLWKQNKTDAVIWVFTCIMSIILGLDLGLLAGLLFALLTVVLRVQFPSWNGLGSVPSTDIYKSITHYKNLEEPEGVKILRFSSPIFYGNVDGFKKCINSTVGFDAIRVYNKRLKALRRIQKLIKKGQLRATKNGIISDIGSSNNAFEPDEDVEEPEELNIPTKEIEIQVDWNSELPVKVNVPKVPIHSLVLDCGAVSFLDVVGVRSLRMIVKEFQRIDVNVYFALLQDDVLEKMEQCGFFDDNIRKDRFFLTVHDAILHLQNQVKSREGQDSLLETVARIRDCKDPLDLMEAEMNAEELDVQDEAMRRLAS

[3] = species on record: Homo sapiens; test: Effect on airway surface liquid depth in human CFBE at 25 uM by rhodamine B-dextran fluorescence based confocal microscopy; assay type: functional
[4] = molecular target: T2, Pendrin (Homo sapiens) (UniProt O43511); test: Inhibition of pendrin in human bronchial epithelial cells assessed as increase in airway surface liquid depth at 25 uM by rhodamine B-dextran fluorescence based confocal microscopy (reference value: -16 um)
T2 sequence (whole entry): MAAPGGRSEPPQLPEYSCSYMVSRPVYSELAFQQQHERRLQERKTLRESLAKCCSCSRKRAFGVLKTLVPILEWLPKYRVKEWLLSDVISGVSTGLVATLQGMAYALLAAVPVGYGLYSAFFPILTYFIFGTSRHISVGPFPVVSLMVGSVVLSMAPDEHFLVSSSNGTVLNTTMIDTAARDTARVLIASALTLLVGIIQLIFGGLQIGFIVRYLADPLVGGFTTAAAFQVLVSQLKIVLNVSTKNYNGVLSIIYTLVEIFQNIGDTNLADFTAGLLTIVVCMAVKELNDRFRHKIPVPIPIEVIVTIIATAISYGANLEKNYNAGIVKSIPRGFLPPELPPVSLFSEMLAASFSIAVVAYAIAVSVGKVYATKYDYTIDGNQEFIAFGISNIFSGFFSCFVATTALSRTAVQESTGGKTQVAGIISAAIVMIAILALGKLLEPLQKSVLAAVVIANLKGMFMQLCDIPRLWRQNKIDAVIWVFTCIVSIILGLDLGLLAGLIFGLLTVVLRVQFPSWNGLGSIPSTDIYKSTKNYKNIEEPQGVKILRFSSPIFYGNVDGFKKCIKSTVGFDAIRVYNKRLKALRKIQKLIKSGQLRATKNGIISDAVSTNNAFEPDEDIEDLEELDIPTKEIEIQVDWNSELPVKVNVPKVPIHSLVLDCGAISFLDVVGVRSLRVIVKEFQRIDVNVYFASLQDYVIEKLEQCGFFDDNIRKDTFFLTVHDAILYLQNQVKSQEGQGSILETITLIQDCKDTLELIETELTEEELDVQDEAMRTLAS

[5] = molecular target: T3, Solute carrier family 12 member 2 (Homo sapiens) (UniProt P55011); test: Inhibition of NKCC1 in human bronchial epithelial cells assessed as effect on short-circuit current at 25 uM pre-incubated for 30 mins
T3 sequence (whole entry): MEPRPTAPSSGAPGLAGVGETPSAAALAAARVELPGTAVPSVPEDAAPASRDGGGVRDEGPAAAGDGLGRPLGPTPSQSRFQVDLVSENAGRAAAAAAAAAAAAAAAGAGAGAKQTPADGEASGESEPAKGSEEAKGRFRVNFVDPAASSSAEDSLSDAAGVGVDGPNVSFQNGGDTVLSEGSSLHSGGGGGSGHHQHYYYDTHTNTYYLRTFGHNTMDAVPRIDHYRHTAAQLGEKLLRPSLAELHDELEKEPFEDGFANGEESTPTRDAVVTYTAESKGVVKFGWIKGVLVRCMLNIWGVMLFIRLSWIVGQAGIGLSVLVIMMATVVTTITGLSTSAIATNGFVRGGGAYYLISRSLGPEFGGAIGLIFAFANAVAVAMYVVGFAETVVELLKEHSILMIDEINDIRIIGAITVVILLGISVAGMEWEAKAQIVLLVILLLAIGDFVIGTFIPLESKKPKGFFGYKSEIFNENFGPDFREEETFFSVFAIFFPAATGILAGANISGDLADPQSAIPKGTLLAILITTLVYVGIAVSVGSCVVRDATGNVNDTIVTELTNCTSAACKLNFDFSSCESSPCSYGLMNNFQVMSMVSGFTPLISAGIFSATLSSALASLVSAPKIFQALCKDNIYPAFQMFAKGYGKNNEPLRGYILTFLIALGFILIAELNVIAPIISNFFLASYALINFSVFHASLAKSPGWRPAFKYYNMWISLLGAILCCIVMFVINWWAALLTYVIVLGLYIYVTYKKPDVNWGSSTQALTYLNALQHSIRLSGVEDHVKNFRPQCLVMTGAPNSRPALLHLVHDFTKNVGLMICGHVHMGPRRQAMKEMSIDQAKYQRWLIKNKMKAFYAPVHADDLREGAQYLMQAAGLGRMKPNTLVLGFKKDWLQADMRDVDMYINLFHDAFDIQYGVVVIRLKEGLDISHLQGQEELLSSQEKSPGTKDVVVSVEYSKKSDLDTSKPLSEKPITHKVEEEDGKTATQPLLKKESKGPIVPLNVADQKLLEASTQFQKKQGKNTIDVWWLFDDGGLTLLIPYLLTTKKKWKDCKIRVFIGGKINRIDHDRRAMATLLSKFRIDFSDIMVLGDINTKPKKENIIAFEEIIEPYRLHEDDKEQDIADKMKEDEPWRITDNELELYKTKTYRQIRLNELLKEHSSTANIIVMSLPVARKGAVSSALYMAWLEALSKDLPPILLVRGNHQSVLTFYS

inhibition [2]	Activity [4]	inhibition [5]	Compound	Activity [1]	Activity [3]
Dose-dependent effect	–	–	Cc1n[nH]c(-c2cc(S(=O)(=O)NC3CCCc4ccccc43)c(C)s2)c1C (stereo not given)	inactive	–
–	-8 µm	inactive	Cn1nc(COc2cccc(F)c2)c2c1CCN(C(=O)Nc1ccc(Cl)cc1)C2	–	inactive
